From PubChem BioAssay AID179 (DTP/NCI, 2004)
pEC50, pIC50: −log10 of the molar value. Several values for one entry are separate records, joined by “and”; a condition that tells them apart may be missing. Identical values can stand only once. Activity calls are given as the source filed them.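 How the source made its calls: active means compounds giving half or more protection of infected cells from virus-caused growth loss, again on retest; inactive means the rest.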 Where a SMILES comes first, the peptide text is derived from it.

System: CEM cells HIV-1 protection, formazan growth assay
Assay: NCI AIDS Antiviral Assay
Conditions: for pIC50: measured here: growth of uninfected CEM cells
Experimental: The ability of compounds to protect human CEM cells from HIV-1 infection is measured as a screen for new compounds capable of inhibiting the HIV virus. Five concentrations of drug were tested on uninfected and infected cells and cell growth was measured using a soluble formazan assay. […] Compounds that provided at least 50% protection were retested. Compounds that provided at least 50% protection on retest were listed as moderately active. Compounds that reproducibly provided 100% protection were listed as confirmed active. […] Note that the inability to provide protection could be due to toxicity.

Cc1ccc(C2=CSC3=NCCN23)cc1Cl
pEC50: < 3.70 | pIC50: 4.03

CC(C)CCCC(C)[C@H]1CCC2C3CC=C4C[C@@H](OP(=O)(O)OCCC=C(c5cc(Cl)c(O)c(C(=O)O)c5)c5cc(Cl)c(O)c(C(=O)O)c5)CC[C@]4(C)C3CC[C@@]21C (stereo partly drawn)
pEC50: < 4.00 | pIC50: 4.41

COC(=O)C1=CC(=O)OC1(OO)c1ccc(Br)cc1 (stereo not drawn)
pEC50: < 3.70 | pIC50: 4.41

Cc1ccccc1C1=C/C(=C(\SS/C(C(=O)c2ccc(OCC(=O)O)c(Cl)c2Cl)=C2\C=C(c3ccccc3C)SS2)C(=O)c2ccc(OCC(=O)O)c(Cl)c2Cl)SS1
pEC50: < 4.57 | pIC50: < 4.57

COc1c(C)c(O)c2c(=O)cc(-c3ccccc3)oc2c1C
pEC50: < 4.20 | pIC50: < 4.20

CCCCCCCCCC=C(c1cc(Cl)c(OC)c(C(=O)O)c1)c1cc(Cl)c(OC)c(C(=O)O)c1
pEC50: 3.58 | pIC50: 3.50

C[N+](C)(C)CCCCCCCCCC[N+](C)(C)C
pEC50: < 3.22 | pIC50: < 3.22

COC(=O)[C@H](Cc1ccc(OC(C)(C)C)cc1)N[C@H](C)C(=O)N[C@@H](Cc1ccccc1)C(=O)OCc1ccccc1
pEC50: < 3.70 | pIC50: 4.56

CN(C(=N)c1ccccc1)c1ccccc1
outcome: inactive

C[N+](C)(CCCCCC[N+](C)(C)CC(=O)O)CC(=O)O
pEC50: < 3.26 | pIC50: < 3.26

Cc1cccc(C)c1NC(=O)CCC(=O)CC(=O)C(C)C
pEC50: < 3.91 | pIC50: < 3.91

CCOC(=O)Cn1c(=O)[nH]c(=O)c2c1ncn2Cc1ccccc1
pEC50: < 3.26 | pIC50: 3.29

C=C1CC2C[C@H](OS(=O)(=O)c3ccc(C)cc3)C(C1)N2C (stereo partly drawn)
pEC50: < 3.70 | pIC50: < 3.70

CS1(=O)=N/C(=N\C(=O)Nc2ccccc2)c2ccccc21 (stereo not drawn)
outcome: inactive

Cc1ccc(Nc2nc3ccccc3nc2NS(=O)(=O)c2ccc(N)cc2)cc1
pEC50: < 3.70 | pIC50: 4.36

CNc1nc2n(CCO)c(-c3ccccc3)c(-c3ccccc3)nc-2c(=O)n1
pEC50: < 4.30 | pIC50: 4.58

Cn1ccnc1.Cn1ccnc1.[O-][Cl+3]([O-])([O-])[O-].[Pt+2].c1ccc(-c2ccccn2)nc1
pEC50: < 3.70 | pIC50: < 3.70

CCC(C)C1NC(=O)C2CCCN2C(=O)CNC(=O)C(C)NC(=O)C(Cc2ccccc2)NC(=O)C(C(C)C)NC1=O (stereo not drawn) (cyclo(GPIVFA); configuration not given here)
outcome: inactive

CSc1c(C#N)c(S)n(-c2ccc(Cl)cc2)c(=O)c1C#N
pEC50: < 3.70 | pIC50: 4.28

Cc1ccc(OCC2OC(n3cnc4c(Cl)ncnc43)CC2Oc2ccc(C)cc2)cc1 (stereo not drawn)
pEC50: < 3.70 | pIC50: 5.16 and 4.91

O=C1C=C(Nc2ccccc2)c2ccccc2C1=O
pEC50: < 4.96 | pIC50: < 4.96

N#CN/C(N)=N/S(=O)(=O)c1ccc([N+](=O)[O-])cc1
pEC50: < 3.03 | pIC50: 3.59

O=C1N/C(=N\N=C\c2ccccc2)C(c2ccccc2)O1 (stereo not drawn)
pEC50: < 3.70 | pIC50: 4.47

COCC(=O)OC1CCn2c1nc1c2C(=O)C(C)=C(NC(C)=O)C1=O (stereo not drawn)
pEC50: < 3.70 | pIC50: 5.90

CC1C(c2ccccc2)OCN1CC=C(c1ccsc1)c1ccsc1 (stereo not drawn)
pEC50: < 3.70 | pIC50: 4.82

N#C/C(=C\c1cccc(C#N)c1)C(=O)c1ccccc1
pEC50: < 3.94 | pIC50: 4.80

O=c1[nH]c2ccccc2c(=O)n1/N=C\c1ccc([N+](=O)[O-])cc1
pEC50: < 3.70 | pIC50: < 3.70

NC(=O)c1cn(C2OC(CO)C(O)C2O)c(=O)[nH]c1=O (stereo not drawn)
pEC50: < 3.06 | pIC50: < 3.06

COc1cc(C(C[N+](=O)[O-])SC(C)=O)ccc1OCc1ccccc1 (stereo not drawn)
pEC50: < 3.70 | pIC50: 5.71

O=C1OC(=O)C2=C1C1C=CC2O1
pEC50: < 2.97 | pIC50: 3.53

COc1ccccc1Nc1nc(NNC(=O)Cc2ccccc2)nc(NNC(=O)c2ccncc2)n1
pEC50: < 4.30 | pIC50: < 4.30

COC(C)(C)C1=CCC(C)CC1 (stereo not drawn)
pEC50: < 4.00 | pIC50: < 4.00

C=CC(C)(C)n1cc(C2=C3OC(=O)C(c4cn(C(C)(C)C=C)c5ccccc45)=C3OC2=O)c2ccccc21
pEC50: < 3.70 | pIC50: < 3.70

CC(=O)NC1=N/C(=C\c2ccc(Cl)cc2)C(=O)N1/C=C1\C(=O)Oc2ccccc2C1=O
pEC50: < 3.70 | pIC50: 4.06

CC(C)CC1NC(=O)CCC(NC(=O)C(Cc2ccc(O)cc2)NC(=O)OCc2ccccc2)C(=O)NC(Cc2ccccc2)C(=O)NC(Cc2ccccc2)NC1=O (stereo not drawn)
pEC50: < 3.70 | pIC50: < 3.70

O=c1[nH]c(=O)n(C2CCC(COP(=O)(O)O)O2)cc1Cc1ccccc1 (stereo not drawn)
pEC50: < 3.33 | pIC50: < 3.33

CC1(Br)C(=O)C(O)=C(Br)C1=O (stereo not drawn)
pEC50: < 3.70 | pIC50: 4.71

CNc1ccccc1S(=O)(=O)c1ccccc1Br
pEC50: < 3.70 | pIC50: 4.74

N#CCCN(c1ccc(C=O)cc1)S(=O)(=O)c1ccccc1
pEC50: < 4.64 | pIC50: < 4.64

CC(C)(C)COc1ccc2c(c1)-c1nc-2nc2[nH]c(nc3nc(nc4[nH]c(n1)c1ccc(OCC(C)(C)C)cc41)-c1cc(OCC(C)(C)C)ccc1-3)c1ccc(OCC(C)(C)C)cc21
pEC50: < 5.08 | pIC50: < 5.08

COC(=O)c1nc(-c2ccc(Cl)c(Cl)c2)nc2ccccc12
outcome: inactive

COc1nc2cc3c(cc2n2cccc12)oc1ccccc13
pEC50: 3.81 | pIC50: < 3.70

NC(=O)C1CCCN1C(=O)C(N)Cc1ccccc1 (stereo not drawn) (H-Phe-Pro-NH2; configuration not given here)
pEC50: < 3.70 | pIC50: < 3.70

COc1ccc(N=Nc2ccc3oc(=O)c(C(=O)Nc4ccc(OC)cc4)cc3c2)cc1
pEC50: < 3.70 | pIC50: 4.70

CCOC(=O)CN1CCNCCN(CC(=O)OCC)CCNCC1
pEC50: < 4.00 | pIC50: 5.01

CCCCCCCCCCCCCCCCCCOCC(O)COP(=O)(O)OCC1OC(n2cc(C)c(=O)[nH]c2=O)CC1N=[N+]=[N-] (stereo not drawn)
pEC50: < 4.00 | pIC50: 4.50

O=C1C[C@@H]2[C@@H](CCC23CCCC3)N1
outcome: inactive

COC1(C)C[C@@]23CC[C@@H]4C(C)(C(=O)O)CCCC4(C)[C@@H]2CC[C@@H]1C3 (stereo partly drawn)
pEC50: < 3.70 | pIC50: 3.92

COc1ccc(NC2=NCCO2)c2ccccc12
pEC50: < 3.70 | pIC50: 4.33

CC1OS(=O)(=O)CS(=O)(=O)OC1C (stereo not drawn)
pEC50: < 2.97 | pIC50: 2.99

COC1N(C2C=CC(CO)O2)C(=O)NC(=O)C1(C)Cl (stereo not drawn)
pEC50: 3.33 | pIC50: 2.99

COc1ccc(/C=C2\Cc3ccccc3C2=O)cc1OC
pEC50: < 4.45 | pIC50: < 4.45

COC(=O)c1cc(C(=O)OC)c(C/C(=N/NC(N)=S)C(=O)Nc2ccc(Cl)c(Cl)c2)nc1C/C(=N/NC(N)=S)C(=O)Nc1ccc(Cl)c(Cl)c1
pEC50: < 3.70 | pIC50: < 3.70

COC(=O)/C([Se]c1c(C)cc(C)cc1C)=C(/[Se]c1c(C)cc(C)cc1C)C(=O)OC
outcome: inactive

CN1CCC(c2ccccc2)(c2ccccc2)C(O)C1 (stereo not drawn)
outcome: inactive

CC(C)(C)C1=C(Br)C(C(C)(C)C)OP1(=O)O (stereo not drawn)
pEC50: < 4.00 | pIC50: < 4.00

COc1cccc(-n2nnc3c(N)nc(N)nc32)c1
pEC50: < 3.70 | pIC50: < 3.70

CC(=O)/C(=C/N1CCNC1=S)C(=O)Nc1ccccc1C
pEC50: < 3.70 | pIC50: < 3.70

COc1cc2c(cc1OC)-c1nc(N)sc1CC2
pEC50: < 4.42 | pIC50: < 4.42

CCOC(=O)C1=CC(C)(C(=O)OCC)Nc2c(nc(SC)n(C)c2=O)N1 (stereo not drawn)
pEC50: < 3.70 | pIC50: 3.84
